Source: the supplement of paper PMC6045584
± gives the standard deviation of the averaged measurements.

Assays:
EVEROLIMUS = compound: CO[C@H]1C[C@@H]2CC[C@@H](C)[C@@](O)(O2)C(=O)C(=O)N2CCCC[C@H]2C(=O)O[C@H]([C@H](C)C[C@@H]2CC[C@@H](OCCO)[C@H](OC)C2)CC(=O)[C@H](C)/C=C(\C)[C@@H](O)[C@@H](OC)C(=O)[C@H](C)C[C@H](C)/C=C/C=C/C=C/1C [EVEROLIMUS]; test: surviving fraction relative to DMSO-only wells; higher = less growth inhibition; details: exposure time: 5 days
Procedure, shortened: (§1)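 After seeding at 250–500 cells per well in 384-well plates and a 24-hour wait, log-phase tumour cell lines were exposed without interruption for five days to inhibitors at 0.5, 1, 5, 10, 50, 100, 500 and 1000 nM. CellTiter-Glo luminescence was recorded after 10 minutes at room temperature. Viability is reported as surviving fraction, the luminescence normalised to the median of DMSO-only wells.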

METHOTREXATE = compound: CN(Cc1cnc2nc(N)nc(N)c2n1)c1ccc(C(=O)N[C@@H](CCC(=O)O)C(=O)O)cc1 [METHOTREXATE]; test: as above; details: exposure time: 5 days
Procedure, shortened: as §1

Test System	surviving fraction (EVEROLIMUS; 0.5 nM)	surviving fraction (EVEROLIMUS; 1 nM)	surviving fraction (EVEROLIMUS; 5 nM)	surviving fraction (EVEROLIMUS; 10 nM)	surviving fraction (EVEROLIMUS; 50 nM)	surviving fraction (EVEROLIMUS; 100 nM)	surviving fraction (EVEROLIMUS; 500 nM)	surviving fraction (EVEROLIMUS; 1000 nM)	surviving fraction (METHOTREXATE; 0.5 nM)	surviving fraction (METHOTREXATE; 1 nM)	surviving fraction (METHOTREXATE; 5 nM)	surviving fraction (METHOTREXATE; 10 nM)	surviving fraction (METHOTREXATE; 50 nM)	surviving fraction (METHOTREXATE; 100 nM)	surviving fraction (METHOTREXATE; 500 nM)	surviving fraction (METHOTREXATE; 1000 nM)
HCC1395 BREAST	1.18 ± 0.041	1.08 ± 0.03	1.19 ± 0.025	0.998 ± 0.05	1.02 ± 0.099	1 ± 0.041	0.974 ± 0.026	0.951 ± 0.056	1.18 ± 0.047	1.08 ± 0.073	1.17 ± 0.035	1.17 ± 0.1	1.12 ± 0.058	1.26 ± 0.026	1.03 ± 0.16	1.09 ± 0.062
HUO3N1 BONE	0.751 ± 0.021	0.688 ± 0.011	0.655 ± 0.013	0.632 ± 0.016	0.624 ± 0.043	0.617 ± 0.042	0.581 ± 0.031	0.607 ± 0.023	1.05 ± 0.032	1.04 ± 0.059	1.084 ± 0.008	1.08 ± 0.016	0.991 ± 0.041	0.731 ± 0.029	0.51 ± 0.035	0.51 ± 0.046
LNCAP PROSTATE	0.679 ± 0.048	0.544 ± 0.012	0.409 ± 0.033	0.404 ± 0.043	0.285 ± 0.032	0.288 ± 0.0055	0.219 ± 0.0032	0.222 ± 0.0092	0.965 ± 0.021	0.957 ± 0.042	0.961 ± 0.059	0.851 ± 0.061	0.575 ± 0.011	0.5 ± 0.024	0.428 ± 0.018	0.422 ± 0.032
SCC003 HEADNECK	1.07 ± 0.043	1 ± 0.04	1.04 ± 0.035	0.961 ± 0.036	0.953 ± 0.037	0.94 ± 0.094	0.923 ± 0.066	0.92 ± 0.061	1.09 ± 0.11	1.1 ± 0.033	1.16 ± 0.03	0.87 ± 0.052	0.594 ± 0.021	0.541 ± 0.026	0.549 ± 0.042	0.509 ± 0.037
